One data set has as its target Substance-P receptor (Homo sapiens, UniProt P25103). Description: Displacement of [3H]substance P from human NK1 receptor expressed in CHO cells. Type of data set: cell-based. (Loss of bound radioactivity is the signal in a displacement assay; it reports binding, not function.)
In another data set the test system is Gerbillinae. Description: Anxiolytic-like activity in po or sc dosed gerbils assessed as inhibition of GR-73632-induced foot tapping administered 1 hr before GR-73632 challenge measured. Type of data set: functional. The note with it: for ED50: read-out: ID50 (the source's name).
Data set [1] is described as follows: Cmax in rat at 1 mg/kg, po. Type of data set: ADME, organism-based. Further details: dose 1 mg/kg, route oral. The note with it: in vivo.
Data set [2] in a line: AUC (0 to 8 hrs) in rat at 1 mg/kg, po. To be noted: plasma. The class given is ADME, organism-based. Also noted: time < 8 hr, dose 1 mg/kg, route oral.
A short description of data set [3]: Ratio of drug level in brain to plasma in rat at 1 mg/kg, po after 5 mins. Type of data set: ADME, organism-based. Also noted: dose 1 mg/kg, route oral.

The source of these data is ChEMBL document CHEMBL1153195 (Bioorg Med Chem Lett, 2010).

In general, Ki refers to a dissociation constant, usually derived from enzyme kinetics or from competition with a known ligand. The low end stands for a stronger hold on the target, the high end for a looser hold on the target. In general, Cmax refers to the peak of the concentration-time curve. In general, AUC(0-t) refers to exposure summed from dosing to a finite time, without extrapolation to infinity. A lower AUC(0-t) goes with low exposure. One may read the Kp as tissue or fluid exposure divided by exposure in the circulation.

Sequence of Substance-P receptor (P25103 whole entry): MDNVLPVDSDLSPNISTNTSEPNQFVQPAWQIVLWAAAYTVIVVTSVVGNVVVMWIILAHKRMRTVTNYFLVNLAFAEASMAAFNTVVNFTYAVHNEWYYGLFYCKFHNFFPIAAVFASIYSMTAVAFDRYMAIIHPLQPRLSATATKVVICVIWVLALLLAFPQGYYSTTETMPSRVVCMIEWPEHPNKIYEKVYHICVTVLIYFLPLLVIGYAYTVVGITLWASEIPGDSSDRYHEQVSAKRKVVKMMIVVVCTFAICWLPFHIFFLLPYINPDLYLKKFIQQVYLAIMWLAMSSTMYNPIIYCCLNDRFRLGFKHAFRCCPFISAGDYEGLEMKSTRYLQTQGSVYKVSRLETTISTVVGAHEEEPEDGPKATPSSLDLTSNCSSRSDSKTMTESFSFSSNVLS

As to `Cc1cc(F)ccc1[C@H]1CNCCN1C(=O)N1CCC=CC1c1cc(C(F)(F)F)cc(C(F)(F)F)c1` (stereo in doubt; 3b), the Ki on Substance-P receptor is 0.501 nM.
In turn, `Cc1cc(F)ccc1[C@H]1CNCCN1C(=O)N1CCCC1c1cc(C(F)(F)F)cc(C(F)(F)F)c1` (stereo in doubt; 2b) showed a Ki at Substance-P receptor of 6.31 nM. This Ki lies about 13-fold higher than the previous one.
Molecule `Cc1cc(F)ccc1[C@H]1CNCCN1C(=O)N1CCCCC1c1cc(C(F)(F)F)cc(C(F)(F)F)c1` (stereo in doubt; 4a) gave a Ki on Substance-P receptor of 31.6 nM. Compared with the last molecule, the Ki is about 5-fold higher.
Consider `Cc1cc(F)ccc1[C@H]1CNCCN1C(=O)N1CCNCC1c1cc(C(F)(F)F)cc(C(F)(F)F)c1` (stereo in doubt; 5b) [listing 1 of 2 here], for which the Activity result with Gerbillinae was “Dose-dependent effect”.
As for `Cc1cc(F)ccc1[C@H]1CNCCN1C(=O)N1CCNCC1c1cc(C(F)(F)F)cc(C(F)(F)F)c1` (stereo in doubt; 5a), the Ki at Substance-P receptor was 100 nM. This lies in the sub-micromolar range.
The molecule `Cc1cc(F)ccc1[C@H]1CNCCN1C(=O)N(C)C1(c2cc(C(F)(F)F)cc(C(F)(F)F)c2)CC1` gave a Ki at Substance-P receptor of 0.501 nM. In the data set on Gerbillinae, the Activity result was “Dose-dependent effect” and the ED50 worked out at 0.2 mg/kg. Moreover, the Cmax in data set [1] is 29 ng/mL. Further, the AUC(0-t) at 8 h in data set [2] came to 108 ng·h/mL.
On Substance-P receptor, `Cc1cc(F)ccc1[C@H]1CNCCN1C(=O)N1CCCCC1c1cc(C(F)(F)F)cc(C(F)(F)F)c1` (stereo in doubt; 4b) showed a Ki of 1.26 nM. That is a single-digit nanomolar value.
On Substance-P receptor, `Cc1cc(F)ccc1C1CNCC2CN(Cc3cc(C(F)(F)F)cc(C(F)(F)F)c3)C(=O)N21` (stereo not given) showed a Ki of 50.1 nM.
The molecule `Cc1cc(F)ccc1[C@H]1CNCCN1C(=O)N1CCC=CC1c1cc(C(F)(F)F)cc(C(F)(F)F)c1` (stereo in doubt; 3a) had a Ki at Substance-P receptor of 20 nM.
The molecule `Cc1cc(F)ccc1[C@H]1CNCCN1C(=O)N1CCNCC1c1cc(C(F)(F)F)cc(C(F)(F)F)c1` (stereo in doubt; 5b) [listing 2 of 2 here] showed a Ki on Substance-P receptor of 0.794 nM. The ED50 in the data set with Gerbillinae turned out to be 0.4 mg/kg. In addition, the Kp at 5 min in data set [3] amounted to 0.9. The same molecule showed a Cmax in data set [1] of 32 ng/mL. Moreover, the AUC(0-t) at 8 h in data set [2] was found to be 145 ng·h/mL.
Consider `Cc1cc(F)ccc1[C@H]1CNCCN1C(=O)N1CCCC1c1cc(C(F)(F)F)cc(C(F)(F)F)c1` (stereo in doubt; 2a), for which the affinity at Substance-P receptor corresponds to a Ki of 63.1 nM.
Turning to `Cc1cc(F)ccc1[C@H]1CNCCN1C(=O)N(C)[C@H](C)c1cc(C(F)(F)F)cc(C(F)(F)F)c1` [VESTIPITANT], in the data set on Gerbillinae, the ED50 was found to be 0.014 mg/kg.
